One may read the Ki as the dissociation constant of the complex between target and ligand, obtained from inhibition or displacement.

The structures appear in SMILES notation.

human IRAK4, sequence (Q9NWZ3 whole entry, the tested form may be a part): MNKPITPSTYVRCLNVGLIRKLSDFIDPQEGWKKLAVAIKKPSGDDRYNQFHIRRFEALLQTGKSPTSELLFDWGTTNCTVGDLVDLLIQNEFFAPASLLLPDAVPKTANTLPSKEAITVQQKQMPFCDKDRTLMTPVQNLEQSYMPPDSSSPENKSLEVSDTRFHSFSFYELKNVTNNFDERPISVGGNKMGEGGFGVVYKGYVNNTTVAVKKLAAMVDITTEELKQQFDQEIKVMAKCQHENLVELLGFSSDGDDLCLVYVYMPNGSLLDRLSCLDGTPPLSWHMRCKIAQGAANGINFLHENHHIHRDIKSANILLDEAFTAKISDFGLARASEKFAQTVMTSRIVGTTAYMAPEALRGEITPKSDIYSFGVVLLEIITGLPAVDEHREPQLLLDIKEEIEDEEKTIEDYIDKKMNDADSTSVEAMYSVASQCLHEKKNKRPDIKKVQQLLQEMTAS

This assay concerns the target human IRAK4 (Homo sapiens (Human), UniProt Q9NWZ3). Description: IRAK4 kinase inhibition, Transcreener fluorescence polarization ADP assay. In kind it is biochemical. The settings on record: recombinant full-length His6-IRAK4; 125 uM ATP; 90 min; Ki computed using ATP Km 642 uM. The method, then: Compounds were assayed for inhibition of human IRAK4 and IRAK1 catalytic activity using recombinant enzyme produced from insect cells. Full-length IRAK4 protein, carrying an N-terminal His6-Tag, was obtained from Life Technologies (Carlsbad, Calif., USA). The IRAK1 construct was produced internally and was comprised of IRAK1 residues Arg194 to Ser712, preceded by an NH2-terminal His6 tag and the coding sequence for glutathione-S-transferase.
In general terms: In fluorescence polarisation assays a small probe gives low polarisation when free and higher when bound to something large.
Consider `CC1(C)Cc2cc(NC(=O)c3cnn4cccnc34)c(OC[C@H]3CCC(=O)N3)cc2O1` [Example 540, N-[2,2-dimethyl-6-[[(2R)-5-oxopyrrolidin-2-yl]methoxy]-3H-benzofuran-5-yl]pyrazolo[1,5-a]pyrimidine-3-carboxamide], for which the Ki worked out at 74 nM.
As to `CC1(C)Cc2cc(NC(=O)c3cnn4cccnc34)c(OC[C@@H]3CCC(=O)N3)cc2O1` [Example 541, N-[2,2-dimethyl-6-[[(2S)-5-oxopyrrolidin-2-yl]methoxy]-3H-benzofuran-5-yl]pyrazolo[1,5-a]pyrimidine-3-carboxamide], the Ki was found to be 190 nM.
`Cc1cc(COc2cc3c(cc2NC(=O)c2cnn4cccnc24)CC(C)(C)O3)n[nH]1` [Example 542, N-[2,2-Dimethyl-6-[(5-methyl-1H-pyrazol-3-yl)methoxy]-3H-benzofuran-5-yl]pyrazolo[1,5-a]pyrimidine-3-carboxamide]: the Ki worked out at 59 nM.
Then `CC(C)(O)[C@H]1CC[C@@H](N2Cc3cc(NC(=O)c4cnn5cccnc45)c(N4CCOCC4)cc3C2=O)CC1` [Example 547, Cis-N-[2-[4-(1-Hydroxy-1-methyl-ethyl)cyclohexyl]-6-morpholino-1-oxo-isoindolin-5-yl]pyrazolo[1,5-a]pyrimidine-3-carboxamide], with 38 nM.
Then `CC(C)(O)[C@H]1CC[C@H](N2Cc3cc(NC(=O)c4cnn5cccnc45)c(N4CCOCC4)cc3C2=O)CC1` [Example 548, trans-N-[2-[4-(1-Hydroxy-1-methyl-ethyl)cyclohexyl]-6-morpholino-1-oxo-isoindolin-5-yl]pyrazolo[1,5-a]pyrimidine-3-carboxamide], with 2.9 nM; and `C[C@@H](CN1Cc2cc(NC(=O)c3cnn4cccnc34)c(N3CCOCC3)cc2C1=O)N1CCOCC1` [Example 551, N-[6-morpholino-2-[(2S)-2-morpholinopropyl]-1-oxo-isoindolin-5-yl]pyrazolo[1,5-a]pyrimidine-3-carboxamide], with 2.9 nM; and `C[C@H](CN1Cc2cc(NC(=O)c3cnn4cccnc34)c(N3CCOCC3)cc2C1=O)N1CCOCC1` [Example 552, N-[6-morpholino-2-[(2R)-2-morpholinopropyl]-1-oxo-isoindolin-5-yl]pyrazolo[1,5-a]pyrimidine-3-carboxamide], with 12 nM.
In the case of `CN1CC[C@@H](N2Cc3cc(NC(=O)c4cnn5cccnc45)c(N4CCOCC4)cc3C2=O)C1=O` [Example 553, N-[2-[(3R)-1-methyl-2-oxo-pyrrolidin-3-yl]-6-morpholino-1-oxo-isoindolin-5-yl]pyrazolo[1,5-a]pyrimidine-3-carboxamide] it was 58 nM; in that of `CN1CC[C@H](N2Cc3cc(NC(=O)c4cnn5cccnc45)c(N4CCOCC4)cc3C2=O)C1=O` [Example 554, N-[2-[(3S)-1-methyl-2-oxo-pyrrolidin-3-yl]-6-morpholino-1-oxo-isoindolin-5-yl]pyrazolo[1,5-a]pyrimidine-3-carboxamide], 14 nM; in that of `O=C(Nc1cc2c(cc1N1CCOCC1)C(=O)N(C[C@H]1CCOC1)C2)c1cnn2cccnc12` [Example 556, N-[6-morpholino-1-oxo-2-[[(3R)-tetrahydrofuran-3-yl]methyl]isoindolin-5-yl]pyrazolo[1,5-a]pyrimidine-3-carboxamide], 4.5 nM.
As for `C[C@H](O)[C@H](F)CN1Cc2cc(NC(=O)c3cnn4cccnc34)c(N3CCOCC3)cc2C1=O` [Example 557, N-[2-[(2R,2S)-2-fluoro-3-hydroxy-butyl]-6-morpholino-1-oxo-isoindolin-5-yl]pyrazolo[1,5-a]pyrimidine-3-carboxamide], the Ki came to 7.3 nM.
In the case of `C[C@@H](O)[C@@H](F)CN1Cc2cc(NC(=O)c3cnn4cccnc34)c(N3CCOCC3)cc2C1=O` [Example 558, N-[2-[(2S,3R)-2-fluoro-3-hydroxy-butyl]-6-morpholino-1-oxo-isoindolin-5-yl]pyrazolo[1,5-a]pyrimidine-3-carboxamide] it was 8.4 nM; in that of `O=C(Nc1cc2c(cc1N1CCOCC1)C(=O)N(C[C@@H]1CCC[C@@H]1O)C2)c1cnn2cccnc12` [Example 559, N-[2-[[(1S,2S)-2-hydroxycyclopentyl]methyl]-6-morpholino-1-oxo-isoindolin-5-yl]pyrazolo[1,5-a]pyrimidine-3-carboxamide], 2.2 nM; in that of `O=C(Nc1cc2c(cc1N1CCOCC1)C(=O)N(C[C@H]1CCC[C@H]1O)C2)c1cnn2cccnc12` [Example 560, N-[2-[[(1R,2R)-2-hydroxycyclopentyl]methyl]-6-morpholino-1-oxo-isoindolin-5-yl]pyrazolo[1,5-a]pyrimidine-3-carboxamide], 1.6 nM.
In the case of `C[C@H](O)[C@@H](F)CN1Cc2cc(NC(=O)c3cnn4cccnc34)c(N3CCOCC3)cc2C1=O` [Example 561, N-(2-((2S,3S)-2-fluoro-3-hydroxybutyl)-6-morpholino-1-oxoisoindolin-5-yl)pyrazolo[1,5-a]pyrimidine-3-carboxamide] it was 11 nM; in that of `C[C@@H](O)[C@H](F)CN1Cc2cc(NC(=O)c3cnn4cccnc34)c(N3CCOCC3)cc2C1=O` [Example 562, N-(2-((2R,3R)-2-fluoro-3-hydroxybutyl)-6-morpholino-1-oxoisoindolin-5-yl)pyrazolo[1,5-a]pyrimidine-3-carboxamide], 1.9 nM.
In the case of `CC(C)(O)[C@H](F)CN1Cc2cc(NC(=O)c3cnn4cccnc34)c(N3CCC3)cc2C1=O` [Example 563, N-[6-(azetidin-1-yl)-2-[(2R)-2-fluoro-3-hydroxy-3-methyl-butyl]-1-oxo-isoindolin-5-yl]pyrazolo[1,5-a]pyrimidine-3-carboxamide] it was 33 nM; in that of `O=C(Nc1cc2c(cc1N1CCOCC1)C(=O)N([C@H]1CCC[C@H]1CO)C2)c1cnn2cccnc12` [Example 564, N-(2-((1S,2R)-2-(hydroxymethyl)cyclopentyl)-6-morpholino-1-oxoisoindolin-5-yl)pyrazolo[1,5-a]pyrimidine-3-carboxamide], 28 nM.
On to `O=C(Nc1cc2c(cc1N1CCOCC1)C(=O)N([C@@H]1CCC[C@@H]1CO)C2)c1cnn2cccnc12` [Example 565, N-(2-((1R,2S)-2-(hydroxymethyl)cyclopentyl)-6-morpholino-1-oxoisoindolin-5-yl)pyrazolo[1,5-a]pyrimidine-3-carboxamide], for which the Ki worked out at 94 nM.
Then `O=C(Nc1cc2c(cc1N1CCOCC1)C(=O)N([C@H]1CCC[C@@H]1CO)C2)c1cnn2cccnc12` [Example 566, N-(2-((1S,2S)-2-(hydroxymethyl)cyclopentyl)-6-morpholino-1-oxoisoindolin-5-yl)pyrazolo[1,5-a]pyrimidine-3-carboxamide], with 8 nM; and `O=C(Nc1cc2c(cc1N1CCOCC1)C(=O)N([C@@H]1CCC[C@H]1CO)C2)c1cnn2cccnc12` [Example 567, N-(2-((1R,2R)-2-(hydroxymethyl)cyclopentyl)-6-morpholino-1-oxoisoindolin-5-yl)pyrazolo[1,5-a]pyrimidine-3-carboxamide], with 5.9 nM; and `CC1(C#N)CCN(c2cc3c(cc2NC(=O)c2cnn4cccnc24)CN(C[C@@H](F)C(C)(C)O)C3=O)CC1` [Example 569, N-[6-(4-Cyano-4-methyl-1-piperidyl)-2-[(2R)-2-fluoro-3-hydroxy-3-methyl-butyl]-1-oxo-isoindolin-5-yl]pyrazolo[1,5-a]pyrimidine-3-carboxamide], with 3.1 nM.

Source of the values: patent US10988478B1, “Pyrazolo[1,5a]pyrimidine derivatives as IRAK4 modulators” (Genentech, Inc., priority 2015, dated 2021).
